{"source": "patent US20060166867A1", "about": "“Novel conjugates of polysaccharides and uses thereof” (priority 2003, published 2006)", "key": {"HIV-1 IIIB": {"system": "HIV-1 IIIB", "assay": "microbe, parasite or virus in culture", "type": "cell-based", "details": "Table 4; read-out: EC50 IIIB", "procedure": "(§1) Inhibition of HIV-1 cell replication was tested using the cMAGI assay, which is based on the ability of HIV-1 TAT to transactivate the expression of an integrated β-galactosidase reporter gene driven by the HIV-LTR (B. Chackeria et al., J. Virol., (1997) 71, 3932; Collins et al., Nat. Med. (2000) 6, 475). The β-galactosidase reporter is modified to remain localized in the nucleus where it can be detected with the X-gal (5-bromo-4-chloro-3indoyl-β-D-galactopyranoside) substrate as an intense nuclear stain within a few days of infection.\n(§2) HIV-1 isolates were propagated by subculture in MT2 cells (Litovchick et al. (2001) supra). Aliquots of cell-free culture supernatants were used as viral inoculum. PAACs were dissolved in the RPMI 1640 medium. Cytotoxicity determinations were carried out in MT2 cells by trypan blue exclusion assay. Viral inhibition was determined by incubating MT2 or cMAGI HIV-1 reporter cells with 0.2-0.5 multiplicity of infection of HIV-1 wild type or resistant virus for 4 days at 37° C. in the presence or absence of various concentrations of pAACs. HIV-1 infection of cMAGI cells was determined by counting the number of HIV-1-infected cells (stained blue). The cytopathic effects of the viral infection of MT2 cells were also analyzed by microscopic assessment of syncytium formation."}, "[1]": {"system": "HIV-1 AZT resistant virus", "type": "cell-based", "details": "Table 4; read-out: EC50 AZT^Res", "procedure": "as §1, §2"}, "HIV-1 Ba-L": {"system": "HIV-1 Ba-L", "type": "cell-based", "details": "Table 4", "procedure": "as §1, §2"}, "[2]": {"system": "HIV-1 NeoR6 resistant virus", "type": "cell-based", "details": "read-out: EC50 NeoR6^Res; Table 4", "procedure": "as §1, §2"}, "[3]": {"system": "HIV-1 Protease resistant virus", "type": "cell-based", "details": "Table 4; read-out: EC50 Protease^Res", "procedure": "as §1, §2"}, "[4]": {"system": "HIV-1 clinical isolate Clade A", "type": "cell-based", "details": "Table 4; read-out: EC50 Clade A", "procedure": "as §1, §2"}, "[5]": {"system": "HIV-1 clinical isolate Clade C", "type": "cell-based", "details": "Table 4; read-out: EC50 Clade C", "procedure": "as §1, §2"}, "in vitro": {"assay": "in vitro", "type": "cell-based", "details": "human; Table 4; tryphan blue exclusion assay for MT2 cells; read-out: Cytotoxicity", "procedure": "Cytotoxicity of the various pAACs was determined using the trypan blue exclusion assay. In brief, a sample of the cell suspension was diluted 1:1 (v/v) with 0.4% trypan blue and the cells were counted using a hemocytometer. Results are expressed as the percentage of dead cells.\nas §2"}, "CXCR4": {"biological_target": "T1, CXCR4 (Homo sapiens, UniProt P61073)", "T1 construct": "incubated at 4° C. with anti-CXCR4 mAb, 12G5, conjugated to phycoerithrine (PE); endogenous in cells; host or cells: MT2 cells", "T1 sequence (P61073 whole entry)": "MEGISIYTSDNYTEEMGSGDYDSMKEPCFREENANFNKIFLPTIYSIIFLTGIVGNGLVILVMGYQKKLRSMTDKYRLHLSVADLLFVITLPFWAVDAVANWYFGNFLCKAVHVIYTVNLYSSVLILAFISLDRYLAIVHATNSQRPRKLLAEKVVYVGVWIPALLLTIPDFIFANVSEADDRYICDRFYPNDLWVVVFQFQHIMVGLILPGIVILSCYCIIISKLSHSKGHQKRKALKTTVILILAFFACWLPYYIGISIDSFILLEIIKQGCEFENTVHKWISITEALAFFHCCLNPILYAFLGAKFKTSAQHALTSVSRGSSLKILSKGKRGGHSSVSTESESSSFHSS", "assay": "Competition with 12G5 mAb binding to CXCR4 on MT2 cells (flow cytometry)", "procedure": "Interaction of pAACs and arginine peptides with CXCR4 coreceptor: Interactions of pAACs and arginine-peptides with CXCR4 were determined by flow cytometry (FACS-Scan, Becton Dickinson) as previously described (Litovich (2001) supra). In brief, 0.5×10^6 MT2 cells were washed with ice-cold PBS containing 0.1% sodium azide (wash buffer) and were incubated at 4° C. with anti-CXCR4 mAb, 12G5, conjugated to phycoerithrine (PE), in the absence or presence of different concentrations of pAACs and arginine peptides. After 30 minutes of incubation, the cells were washed with ice-cold wash buffer and fixed in PBS containing 1% paraformaldehyde. Non-specific fluorescence was assessed using an isotype control. For each sample 10,000 events were acquired. Data were analyzed and processed using CellQuest™ software (Becton Dickinson)."}, "[6]": {"system": "Staphylococcus aureus ATCC 24213", "details": "Gram positive reference strain"}, "S. aureus MSSA": {"system": "S. aureus MSSA", "details": "Gram positive clinical isolate"}, "S. aureus MRSA": {"system": "S. aureus MRSA", "details": "Gram positive clinical isolate"}, "S. epidermidis MSSE": {"system": "S. epidermidis MSSE", "details": "Gram positive clinical isolate"}, "S. epidermidis MRSE": {"system": "S. epidermidis MRSE", "details": "Gram positive clinical isolate"}, "[7]": {"system": "Escherichia coli ATCC 25922", "details": "Gram negative reference strain"}, "[8]": {"system": "Pseudomonas aeruginosa ATCC 27853", "details": "Gram negative reference strain"}, "[9]": {"system": "Klebsiella pneumoniae ATCC 13883", "details": "Gram negative reference strain"}, "[10]": {"system": "Proteus mirabilis ATCC 7002", "details": "Gram negative reference strain"}, "[11]": {"system": "Acinetobacter baumannii ATCC 19606", "details": "Gram negative reference strain"}, "E. Coli-ESBL negative": {"system": "E. Coli-ESBL negative", "details": "Gram negative clinical isolate"}, "E. Coli-ESBL positive": {"system": "E. Coli-ESBL positive", "details": "Gram negative clinical isolate"}, "[12]": {"system": "K. pneumoniae-ESBL negative", "details": "Gram negative clinical isolate"}, "[13]": {"system": "K. pneumoniae-ESBL positive", "details": "Gram negative clinical isolate"}, "Enterobacter cloacae": {"system": "Enterobacter cloacae", "details": "Gram negative clinical isolate"}, "Enterobacter aerogenes": {"system": "Enterobacter aerogenes", "details": "Gram negative clinical isolate"}, "[14]": {"system": "P. aeruginosa-gentamicin^s, meropenem^s", "details": "Gram negative clinical isolate"}, "[15]": {"system": "P. aeruginosa-gentamicin^r, meropenem^r", "details": "Gram negative clinical isolate"}, "[16]": {"system": "A. baumannii-amikacin^s, meropenem^s", "details": "Gram negative clinical isolate"}, "[17]": {"system": "A. baumannii-amikacin^r, meropenem^r", "details": "Gram negative clinical isolate"}, "[18]": {"system": "Enterobacter cloacae W25161", "details": "Gram negative clinical isolate"}, "A. baumannii R16998": {"system": "A. baumannii R16998", "details": "Gram negative clinical isolate"}, "[19]": {"system": "Enterococcus faecalis-vancomycin^r", "details": "clinical isolate, Table 7"}, "E. Coli B3095141^r": {"system": "E. Coli B3095141^r", "details": "clinical isolate, Table 7"}}, "note": "“And” between values parts separate entries of the source, which are not always exact repeats. Equal values may be shown once."}
{"molecule": "CC(=O)N[C@H](CCCNC(=N)N)C(=O)N[C@H](CCCNC(=N)N)C(=O)N[C@H](CCCNC(=N)N)C(=O)N[C@H](CCCNC(=N)N)C(=O)N[C@H](CCCNC(=N)N)C(=O)N[C@H](CCCNC(=N)N)C(=O)N[C@H](CCCNC(=N)N)C(=O)N[C@H](CCCNC(=N)N)C(=O)N[C@H](CCCNC(=N)N)C(=O)NC[C@H]1O[C@H](O[C@H]2[C@H](O)[C@@H](O)[C@H](N)C[C@@H]2N)[C@H](N)[C@@H](O)[C@@H]1O", "note": "[Compound 13, D-Arg-9-mer-neamine]", "values": [{"measurement": "EC50", "setting": "HIV-1 IIIB", "result": "2300 ± 500", "unit": "nM"}, {"measurement": "EC50", "setting": "[1]", "result": "10.4 ± 2.7", "unit": "µM"}, {"measurement": "EC50", "setting": "HIV-1 Ba-L", "result": "> 50", "unit": "µM"}, {"measurement": "EC50", "setting": "[2]", "result": "3000 ± 1000", "unit": "nM"}, {"measurement": "EC50", "setting": "[3]", "result": "2400 ± 400", "unit": "nM"}, {"measurement": "EC50", "setting": "[4]", "result": "5.1 ± 2.9", "unit": "µM"}, {"measurement": "EC50", "setting": "[5]", "result": "2700 ± 500", "unit": "nM"}, {"measurement": "CC50", "setting": "in vitro", "result": 150, "unit": "µM"}, {"measurement": "inhibition at 2 µM", "setting": "CXCR4; read-out: % Inhibition of 12G5 mAb binding to CXCR4, 2 μM", "result": 67.3, "unit": "%"}, {"measurement": "inhibition at 10 µM", "setting": "CXCR4; read-out: % Inhibition of 12G5 mAb binding to CXCR4, 10 μM", "result": 100, "unit": "%"}, {"measurement": "Minimum Inhibitory Concentration", "setting": "[6]", "result": "2.0 mg/liter and 0.80 μM"}, {"measurement": "Minimum Inhibitory Concentration", "setting": "S. aureus MSSA", "result": "1.5 mg/liter and 0.60 μM"}, {"measurement": "Minimum Inhibitory Concentration", "setting": "S. aureus MRSA", "result": "1.5 mg/liter and 0.60 μM"}, {"measurement": "Minimum Inhibitory Concentration", "setting": "S. epidermidis MSSE", "result": "0.5 mg/liter and 0.20 μM"}, {"measurement": "Minimum Inhibitory Concentration", "setting": "S. epidermidis MRSE", "result": "0.5 mg/liter and 0.20 μM"}, {"measurement": "Minimum Inhibitory Concentration", "setting": "[7]", "result": "6.0 mg/liter and 2.40 μM"}, {"measurement": "Minimum Inhibitory Concentration", "setting": "[8]", "result": "96.0 mg/liter and 38.55 μM"}, {"measurement": "Minimum Inhibitory Concentration", "setting": "[9]", "result": "1.5 mg/liter and 0.60 μM"}, {"measurement": "Minimum Inhibitory Concentration", "setting": "[10]", "result": "8.0 mg/liter and 3.20 μM"}, {"measurement": "Minimum Inhibitory Concentration", "setting": "[11]", "result": "16.0 mg/liter and 6.40 μM"}, {"measurement": "Minimum Inhibitory Concentration", "setting": "E. Coli-ESBL negative", "result": "6.0 mg/liter and 2.40 μM"}, {"measurement": "Minimum Inhibitory Concentration", "setting": "E. Coli-ESBL positive", "result": "8.0 mg/liter and 3.20 μM"}, {"measurement": "Minimum Inhibitory Concentration", "setting": "[12]", "result": "3.0 mg/liter and 1.20 μM"}, {"measurement": "Minimum Inhibitory Concentration", "setting": "[13]", "result": "3.0 mg/liter and 1.20 μM"}, {"measurement": "Minimum Inhibitory Concentration", "setting": "Enterobacter cloacae", "result": "8.0 mg/liter and 3.20 μM"}, {"measurement": "Minimum Inhibitory Concentration", "setting": "Enterobacter aerogenes", "result": "16 mg/liter and 6.40 μM"}, {"measurement": "Minimum Inhibitory Concentration", "setting": "[14]", "result": "48.0 mg/liter and 19.28 μM"}, {"measurement": "Minimum Inhibitory Concentration", "setting": "[15]", "result": "96.0 mg/liter and 38.55 μM"}, {"measurement": "Minimum Inhibitory Concentration", "setting": "[16]", "result": "12.0 mg/liter and 4.8 μM"}, {"measurement": "Minimum Inhibitory Concentration", "setting": "[17]", "result": "96.0 mg/liter and 38.55 μM"}, {"measurement": "Minimum Inhibitory Concentration", "setting": "[18]", "result": "24.0 mg/liter and 9.64 μM"}, {"measurement": "Minimum Inhibitory Concentration", "setting": "A. baumannii R16998", "result": "128.0 mg/liter and 51.41 μM"}, {"measurement": "Minimum Inhibitory Concentration", "setting": "[19]", "result": "64.0 mg/liter and 25.70 μM"}, {"measurement": "Minimum Inhibitory Concentration", "setting": "E. Coli B3095141^r", "result": "6.0 mg/liter and 2.40 μM"}]}
